# Source: patent US20220202783A1, “Use Of ADAM9 Inhibitor As Immunomodulator” (China Medical University, priority 2019, published 2022)
# System: 4T1-luc breast cancer cells
# Test: syngeneic orthotopic breast tumor animal model, immune cell infiltration
# Assay type: in vivo, BALB/c mice
# Settings: 10 mg/kg subcutaneous
# Text: Please further refer to FIG. 7B, which is a flow chart of the ADAM9 inhibitor used in the treatment of a syngeneic orthotopic breast tumor animal model. In the experiment, 4T1-luc breast cancer cells (5×10^4) were transplanted into the breast fat pads of BALB/c mice to establish the syngeneic orthotopic breast tumor animal model. The IVIS imaging system is used for detection, and the tumor size is represented by the luminous flux of the IVIS image. After tumor images were detected on Day 15, the ADAM9 inhibitor (the compound SW1, 10 mg/kg) was pretreated by subcutaneous injection on Day 16, Day 18, and Day 20. After the tumor was surgically removed on Day 21, the ADAM9 inhibitor (the compound SW1, 10 mg/kg) was continuously treated on Day 23, Day 25, Day 27, Day 29 and Day 31. The surgically resected syngeneic orthotopic breast tumor animal model tumors were stained by immunohistochemistry. In the experiment, a control group was injected with DMSO as a control for the treatment of the ADAM9 inhibitor. Please further refer to FIGS. 8A and 8B, which show the analysis results of the effect of the ADAM9 inhibitor on immune cell infiltration.
structure (smiles),measurement,setting,value
O=C1c2ccccc2C(=O)N1CCc1csc(Nc2nc(CCN3C(=O)c4ccccc4C3=O)cs2)n1 [SW1],number of infiltrating neutrophils,4T1 primary breast tumors and lung metastatic breast tumors,greatly reduced
same,number of infiltrating T cells,primary 4T1 breast tumors and lung metastatic breast tumors,increased
